Patent US20150140002A1, “USE OF A PCSK9 INHIBITOR TO TREAT […]” (Sanofi, priority 2013, published 2015)

Test system: patients with primary hypercholesterolemia (heFH and non-FH) who are intolerant to statins
Conditions: in vivo

Compound: CC(C)c1c(C(=O)Nc2ccccc2)c(-c2ccccc2)c(-c2ccc(F)cc2)n1CC[C@@H](O)C[C@@H](O)CC(=O)O [atorvastatin]
- Cardiac disorders (SOC) (human): 2 (3.2%) patients (%)
- Ear and labyrinth disorders (SOC) (human): 1 (1.6%) patients (%)
- General allergic TEAEs (MedDRA SMQ Hypersensitivity) (human): 4 (6.3%) patients (%)
- Investigations (SOC) (human): 3 (4.8%) patients (%)
- Myalgia (human): 27%
- Psychiatric disorders (SOC) (human): 2 (3.2%) patients (%)
- Skeletal muscle-related TEAEs (CMQ preferred term) (human): 25 (39.7%) patients (%)
- TEAEs (human): 54 (85.7%) patients (%)
- Treatment-emergent SAEs (human): 7 (11.1%) patients (%)
- Treatment-emergent injection site reactions (ISRs) (human): 1 (1.6%) patients (%)
- Treatment-emergent neurologic AEs (human): 8 (12.7%) patients (%)
- Treatment-emergent skeletal muscle-related events resulting in early treatment discontinuation (human): 13 (20.6%) patients (%)
- back pain (human): 7.9%
- early termination due to musculoskeletal and connective tissues disorders SOC events (human): 14 [22.2%] patients [%]
- fatigue (human): 7.9%
- headache (human): 6.3%
- insomnia (human): 1 (1.6%) reports (%)
- muscle spasms (human): 11.1%
- muscular weakness (human): 6.3%
- palpitations (human): 0 reports (%)
- paraesthesia (human): 6.3%
- patients who prematurely discontinued study treatment due to a TEAE (human): 16 (25.4%) patients (%)
- patients who prematurely terminated study treatment due to adverse events (human): 16 (25.4%) patients (%)
- rate of AEs (human): 86%
- vertigo (human): 1 (1.6%) reports (%)
- Treatment-emergent neurocognitive disorders: zero
